Experimental data as given in patent US5750547A, “Certain carbanate anti-cancer agents” (priority 1996, dated 1998).
pIC50: −log10 of the molar value. Where two headings read alike, the source gives them in different places.

Tests used:
P388D1 cells = test: In vitro cytotoxicity (MTT), P388D1 cells; format: cell-based; conditions: Mus musculus, P388D1, 72 h, 3 days incubation, MTT
Description: (§1) As suitable cell lines there may be mentioned: human adenocarcinoma cells (CRL-229, LoVo), human ovarian carcinoma cells (CRL-1572), human breast cancer cells (MDA-MB-231), normal mouse breast cells (HC-11), mouse leukaemia cells (CCL-46, P388D1), mouse leukaemia (CCL-219, L1210), CRL-1427, human promonocyte U937 and the like. Most of these cell lines are readily available from the American Type Culture Collection. Cells lines: 0-23, 0-23 clone 2.2, LR-73, LR-73 MDR-3, T47D and T47D (GST), having developed resistance to antineoplastic agents through different mechanisms of resistance were also tested in the same manner.
(§2) All cell lines are cultured by a standard procedure in RPMI-1640®mediumsupplemented with 10% fetal bovine serum and 100 ,pg/mL of penicillin and 100 μg/mL of streptomycin.
(§3) In order to evaluate the efficiency of the compounds of formula I, the following experiments are carried out. Cytotoxicity assays are conducted on LoVo, MDA-MB-231 and P388D1 cells. The choice of these cells has been motivated by the fact that they have been specifically identified as the cause of a large number of cancer in North America in the recent years.
(§4) Tumor cells are obtained from the American Type Culture Collection. The cells are suspended at a concentration of 2.5×10^4 cells/mL in a fresh culture media (RPMI-1640, supplemented with 10% fetal calf serum). The well plates (microtitration, 96 wells) are seeded with 100 μL of the cell suspension and incubated 24 hours at 37° C. in a humid atmosphere containing 5% CO2.100 μL of fresh culture media containing different concentrations of drugs to be tested (1 to 25 μM) are added in 8 wells of each plate, and the cells are further incubated for 3 additional days at 37° C. under the same conditions. Each experiment is conducted in triplicate. Cell survival is determined by MTT method, as taught in J. Immunol Methods, 1986, 89, 271 (Denizot et al.) and Int. J. Immunopharm, 1988. 10, 785 (Page et al). The method mainly consisted of a first removal of the culture media and addition to the plates of 20 μL of a MTT solution (5 mg/mL in PBS pH 7.4). The plates are incubated at 37° C. for 4 hours and then 200 μL of dimethylsuffoxide (DMSO) area added into the wells. The plates are agitated for 15 min at room temperature and the absorbance at 540 nm measured on Titertek MC Multiwell® spectrophotometer.
(§5) The method normally used by the American National Cancer Institute for the comparison of effectiveness between drugs is based upon ID50. The ID50 is the concentration at which half of tumor cell population is killed. A comparison of the antitumor agents of the present invention with chlorambucil, which is presently used commercially, is provided to illustrate the superiority of the former.

LoVo cells = test: In vitro cytotoxicity (MTT), LoVo cells; format: cell-based; conditions: Homo sapiens, 72 h, MTT
Description: as §1, §2, §3, §4, §5

MDA-MB-231 cells = test: In vitro cytotoxicity (MTT), MDA-MB-231 cells; format: cell-based, human; conditions: 3 days incubation, MTT
Description: as §1, §2, §3, §4, §5

L1210 leukaemia cells = test: Antineoplastic assay, L1210 leukaemia in BDF1 mice; format: in vivo; conditions: 10 mg/kg, i.p. daily day 1 to day 9, L1210 in BDF1 mice
Description: L1210 leukaemia cells suspended in RPM1-1640 were washed, centrifuged and re-suspended in phosphate buffer saline (PBS) at a concentration of 5×10^5 cells/mL. 200 μL of the suspension were injected i.p. to BDF1 mice. From day 1 to day 9, mice were treated daily according to the NCI procedure taught in Protocols for screening chemical agents and natural products against animal tumors and other biological systems (3rd edition). Cancer Chem. Rep. Part 3 3 (2): 1-103) with i.p. injections of 10 μL of drug solution in DMSO mixed with 90 μL of hydrogenated soybean oil. Chlorambucil was tested at 1, 5 and 10 mg/kg/day and compounds 36 and 4 at 1, 10 and 50 mg/kg/day. For each concentration, six mice were treated. Control groups were treated i.p. with 100 μL of hydrogenated soybean oil containing 10% (v/v) DMSO.
The antineoplastic activity of a drug on mice bearing cancer tumors is evaluated by a value known in the art as the median survival time (T/C %). This value of T/C % is obtained by dividing the median survival time of treated mice by that of untreated mice, and the quotient is multiplied by 100. When the value of T/C % is lower than 85, the drug is considered toxic. On the other hand, a survival time greater than 125 indicates a significant antineoplastic action of the drug on cancer tumors.

[1] = Acute toxicity assay, i.p. in mice (survival); format: in vivo, BDF1 (C57BL/6×DBA/2) mice
Description: Chlorambucil and compound 36 of the present invention were dissolved in DMSO. Each drug solution was mixed with hydrogenated soybean oil in a ratio 1:9 v/v. 100 μL of this mixture was administered i.p. to BDF1 (C57BL/6×DBA/2) mice. For each concentration of drug, varying from 9.25 to 75 mg/kg for chlorambucil or from 9.25 to 296 mg/kg for compound 36, 6 mice were treated. Survival weight and fitness were measured as criteria of toxicity.

primary brain tumors = conditions: low doses; cited from earlier work
[2] = administered orally or intravenously; cited from earlier work
[3] = cited from earlier work
[4] = Table 2, read-out: ID50 (P388 D1)
[5] = Table 2, 3 days incubation, read-out: ID50 (LoVo)
[6] = Homo sapiens, MDA-MB-231, 72 h, Table 2, read-out: ID50 (MDA-MB-231)
[7] = Homo sapiens, MDA-MB-231, 72 h, Table 1, read-out: ID50 on tumor cells, MDA-MB-231

Row | Molecule | pIC50 (P388D1 cells; [4]) | pIC50 (LoVo cells; [5]) | pIC50 (MDA-MB-231 cells; [6]) | other results
1 | CC(C)c1ccc(NC(=O)NCCCl)cc1 [Compound 4] | 5.66 | 5.89 | 5.70 | median survival time (T/C %) (L1210 leukaemia cells): 164%
2 | O=C(NCCCl)Nc1ccc(CCO)cc1 [Compound 36] | – | – | – | Acute toxicity, survival ([1]; 9.25 mg/kg i.p.): 6/6; Acute toxicity, survival ([1]; 18.5 mg/kg i.p.): 6/6; Acute toxicity, survival ([1]; 37 mg/kg i.p.): 6/6; Acute toxicity, survival ([1]; 75 mg/kg i.p.): 6/6; Acute toxicity, survival ([1]; 111 mg/kg i.p.): 6/6; Acute toxicity, survival ([1]; 148 mg/kg i.p.): 6/6; Acute toxicity, survival ([1]; 222 mg/kg i.p.): 6/6; Acute toxicity, survival ([1]; 296 mg/kg i.p.): 6/6; median survival time (T/C %) (L1210 leukaemia cells): 140%
3 | O=C(NCCCl)Nc1ccc2c(c1)Cc1ccccc1-2 [V, 2-[3-(2chloroethyl)ureido]fluorene] | – | – | – | pIC50 (P388D1 cells; Table 1, read-out: ID50 on tumor cells, P388D1): 5.40; pIC50 (LoVo cells; Table 1, 3 days incubation, read-out: ID50 on tumor cells, LoVo): 5.30; pIC50 (MDA-MB-231 cells; [7]): 5.40
4 | CCCCCCCCc1ccc(NC(=O)NCCCl)cc1 [Compound 10] | 4.49 | 4.54 | 4.48 | –
5 | CCCc1ccc(NC(=O)NCCCl)cc1 [Compound 3] | 4.96 | 5.01 | 4.92 | –
6 | O=C(NCCCl)Nc1ccc2[nH]ccc2c1 [IX, 5-[3-(2-chloroethyl)ureido]indole] | – | – | – | pIC50 (MDA-MB-231 cells; [7]): 4.15
7 | O=NN(CCCl)C(=O)NCCCl [Carmustine] | – | – | – | activity in primary brain tumors (primary brain tumors): active in primary brain tumors; side effects [2]: nausea, vomiting, alopecia, lymphopenia, leucopenia and bone marrow depression; biological half-life ([3]; approximately): 1-1.5 h; percentage bound to plasma proteins ([3]; plasma proteins): over 90%
8 | CCCCCCOc1ccc(NC(=O)NCCCl)cc1 [Compound 16] | 4.77 | 4.80 | 4.66 | –
9 | 5-[3-(2-chloroethyl)ureido] 4,6-dimethyl pyridine [VIII] | – | – | – | pIC50 (MDA-MB-231 cells; Table 1, read-out: ID50 on tumor cells, MDA-MB-231): 4.30
10 | O=C(NCCCl)Nc1ccc(C2CCCCC2)cc1 [Compound 8] | 4.66 | 4.66 | 4.54 | –
11 | CCCCCCc1ccc(NC(=O)NCCCl)cc1 [Compound 7] | 5.10 | 5.21 | 5.14 | –
12 | CCCCCc1ccc(NC(=O)NCCCl)cc1 [Compound 6] | 5.15 | 5.26 | 5.22 | –
